#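 Briefly, cells in 96-well plates were exposed to five compound concentrations for 48 h, and endpoints were estimated by linear interpolation. The concentration for full growth arrest is given as TGI.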
# Columns and labels:
# Assay in all cases: NCI-60 cell line screen, 48 h
# [1] = system: IGROV1 ovarian
# [2] = system: HOP-62 NSCLC
# [3] = system: 786-0 renal
# [4] = system: RXF 393 renal
# [5] = system: HCT-15 colon
# [6] = system: SK-OV-3 ovarian
# [7] = system: HCC-2998 colon
# [8] = system: NCI-H460 lung
# [9] = system: SF-295 CNS
# [10] = system: CCRF-CEM leukemia
# [11] = system: UACC-62 melanoma
# [12] = system: DLD-1 colon
# [13] = system: SK-MEL-28 melanoma
# [14] = system: ACHN renal
# [15] = system: MALME-3M melanoma
# [16] = system: KM20L2 colon
# [17] = system: TK-10 renal
# [18] = system: NCI-H23 lung
# [19] = system: SN12C renal
# [20] = system: RPMI-8226 leukemia
# [21] = system: SNB-75 CNS
# [22] = system: DMS 114 small cell lung
# [23] = system: SNB-78 CNS
# [24] = system: EKVX NSCLC
# [25] = system: K-562 leukemia
# [26] = system: LOX IMVI melanoma
# [27] = system: OVCAR-4 ovarian
# [28] = system: OVCAR-5 ovarian
# [29] = system: NCI-H522 lung
# [30] = system: CAKI-1 renal
# [31] = system: SNB-19 CNS
# [32] = system: HOP-92 NSCLC
# [33] = system: KM12 colon
# [34] = system: UACC-257 melanoma
# [35] = system: OVCAR-3 ovarian
# [36] = system: LXFL 529 NSCLC
# [37] = system: HL-60(TB) leukemia
# [38] = system: SK-MEL-2 melanoma
# [39] = system: COLO 205 colon
# [40] = system: MOLT-4 leukemia
# [41] = system: DMS 273 small cell lung
# [42] = system: XF 498 CNS
# [43] = system: A549 NSCLC
# [44] = system: SF-268 CNS
# [45] = system: OVCAR-8 ovarian
# [46] = system: SK-MEL-5 melanoma
# [47] = system: M14 melanoma
# [48] = system: SW-620 colon
# [49] = system: UO-31 renal
# [50] = system: T-47D breast
# [51] = system: NCI-H226 lung
# [52] = system: SF-539 CNS
# [53] = system: HCT-116 colon
# [54] = system: DU-145 prostate
# [55] = system: NCI/ADR-RES ovarian
# [56] = system: MDA-MB-231 breast
# [57] = system: MCF7 breast
# [58] = system: BT-549 breast
# [59] = system: MDA-N
# [60] = system: SR leukemia
# [61] = system: HT29 colon
# [62] = system: A498 renal
# [63] = system: MDA-MB-435
# [64] = system: HS 578T breast
# [65] = system: PC-3 prostate
# [66] = system: U251 CNS
compound,measurement,setting,value
CC(=O)Nc1c(Nc2ccccc2)[nH]c(C)nc1=S,TGI,[1],> 100 µM
same,TGI,[2],> 100 µM
same,TGI,[3],> 100 µM
same,TGI,[4],> 100 µM
same,TGI,[5],> 100 µM
same,TGI,[6],> 100 µM
same,TGI,[7],> 100 µM
same,TGI,[8],> 100 µM
same,TGI,[9],> 100 µM
same,TGI,[10],> 100 µM
same,TGI,[11],> 100 µM
same,TGI,[12],> 100 µM
same,TGI,[13],> 100 µM
same,TGI,[14],> 100 µM
same,TGI,[15],> 100 µM
same,TGI,[16],> 100 µM
same,TGI,[17],> 100 µM
same,TGI,[18],> 100 µM
same,TGI,[19],> 100 µM
same,TGI,[20],> 100 µM
same,TGI,[21],> 100 µM
same,TGI,[22],> 100 µM
same,TGI,[23],> 100 µM
same,TGI,[24],> 100 µM
same,TGI,[25],> 100 µM
same,TGI,[26],> 100 µM
same,TGI,[27],> 100 µM
same,TGI,[28],> 100 µM
same,TGI,[29],> 100 µM
same,TGI,[30],> 100 µM
same,TGI,[31],> 100 µM
same,TGI,[32],> 100 µM
same,TGI,[33],> 100 µM
same,TGI,[34],> 100 µM
same,TGI,[35],> 100 µM
same,TGI,[36],> 100 µM
same,TGI,[37],> 100 µM
same,TGI,[38],> 100 µM
same,TGI,[39],> 100 µM
same,TGI,[40],> 100 µM
same,TGI,[41],> 100 µM
same,TGI,[42],> 100 µM
same,TGI,[43],> 100 µM
same,TGI,[44],> 100 µM
same,TGI,[45],> 100 µM
same,TGI,[46],> 100 µM
same,TGI,[47],> 100 µM
same,TGI,[48],> 100 µM
same,TGI,[49],> 100 µM
CN(C)c1ccc(/C=C(\NC(=O)c2ccccc2)C2=NC(CCC(=O)O)C(=O)O2)cc1 (stereo not drawn),TGI,[50],> 50 µM
same,TGI,[1],> 50 µM
same,TGI,[2],> 50 µM
same,TGI,[3],> 50 µM
same,TGI,[51],> 50 µM
same,TGI,[4],> 50 µM
same,TGI,[52],> 50 µM
same,TGI,[5],> 50 µM
same,TGI,[53],> 50 µM
same,TGI,[54],> 50 µM
same,TGI,[6],> 50 µM
same,TGI,[55],> 50 µM
same,TGI,[7],> 50 µM
same,TGI,[8],> 50 µM
same,TGI,[9],> 50 µM
same,TGI,[10],> 50 µM
same,TGI,[11],> 50 µM
same,TGI,[56],> 50 µM
same,TGI,[57],> 50 µM
same,TGI,[13],> 50 µM
same,TGI,[58],> 50 µM
same,TGI,[14],> 50 µM
same,TGI,[59],> 50 µM
same,TGI,[15],> 50 µM
same,TGI,[17],> 50 µM
same,TGI,[60],> 50 µM
same,TGI,[18],> 50 µM
same,TGI,[19],> 50 µM
same,TGI,[20],> 50 µM
same,TGI,[21],> 50 µM
same,TGI,[24],> 50 µM
same,TGI,[61],> 50 µM
same,TGI,[25],> 50 µM
same,TGI,[26],> 50 µM
same,TGI,[62],> 50 µM
same,TGI,[63],> 50 µM
same,TGI,[27],> 50 µM
same,TGI,[28],> 50 µM
same,TGI,[29],49.1 µM
same,TGI,[64],> 50 µM
same,TGI,[30],> 50 µM
same,TGI,[31],> 50 µM
same,TGI,[32],> 50 µM
same,TGI,[33],> 50 µM
same,TGI,[34],> 50 µM
same,TGI,[35],> 50 µM
same,TGI,[37],> 50 µM
same,TGI,[38],> 50 µM
same,TGI,[39],> 50 µM
same,TGI,[40],> 50 µM
same,TGI,[65],> 50 µM
same,TGI,[43],> 50 µM
same,TGI,[66],> 50 µM
same,TGI,[44],> 50 µM
same,TGI,[45],> 50 µM
same,TGI,[46],> 50 µM
same,TGI,[47],> 50 µM
same,TGI,[48],> 50 µM
same,TGI,[49],> 50 µM
